Data: patent US20030013660A1, “Dioxolane analogs for improved inter-cellular delivery” (Shire BioChem Inc., priority 2000, published 2003)
“And” between values parts separate entries of the source, which are not always exact repeats. Identical values can stand only once.

Tests used:
CCRF-CEM [1] = assay: 3H-TdR (3H-thymidine) incorporation assay at 72 hr; assay type: cell-based; settings: Homo sapiens, CCRF-CEM, read-out: IC50 CCRF-CEM 24 h, 24 h drug exposure, wash, another 48 hr; 3H-TdR incorporation at 72 hr
Procedure: (§1) Table of IC50 Values (μM) for Controls
(§2) Exposition of 24 hr to drug, wash, incubated for another 48 hr (total of 72 hr assay)
(§3) (3H-Thymidine Incorporation Assay)

CEM/dCK- [2] = assay: 3H-TdR (3H-thymidine) incorporation assay at 72 hr; assay type: cell-based
Procedure: as §1, §2, §3

H-460 [3] = assay: 3H-TdR (3H-thymidine) incorporation assay at 72 hr; assay type: cell-based, Human; settings: Homo sapiens, NCI-H460, read-out: IC50 H-460 24 h, 24 h drug exposure, wash, another 48 hr; 3H-TdR incorporation at 72 hr
SF-268 [4] = assay: 3H-TdR (3H-thymidine) incorporation assay at 72 hr; assay type: cell-based, Human; settings: Homo sapiens, SF-268, read-out: IC50 SF-268 24 h, 24 h drug exposure, wash, another 48 hr; 3H-TdR incorporation at 72 hr
CCRF-CEM [5] = assay: MTT or WST-1 assay at 72 hr (24 hr drug exposure, wash, 48 hr); assay type: cell-based
Procedure: (§4) Exposition of 24hr to drug, washed, and incubated for another 48hr (total of 72hr assay)

MCF-7 [6] = assay: 3H-TdR (3H-thymidine) incorporation assay at 72 hr; assay type: cell-based, Human; settings: Homo sapiens, MCF7, read-out: IC50 MCF-7 24 h, 24 h drug exposure, wash, another 48 hr; 3H-TdR incorporation at 72 hr
CEM/dCK- [7] = assay: 3H-TdR incorporation at 72 hr (24 hr drug exposure, wash, 48 hr); assay type: cell-based; settings: for IC50: Homo sapiens, CCRF-CEM, read-out: IC50 in μM (3H-TdR incorporation at 72 hr) CEM/dCK- 24 h, CCRF-CEM deoxycytidine kinase-deficient, 24 h drug exposure, 72 hr assay; for Factor* (Resistance Factor = Ratio of dCK- on Wild-type CCRF-CEM): ratio of IC50 CEM/dCK- to IC50 CCRF-CEM
Procedure: as §2, §3

CEM/dCK- [8] = assay: MTT or WST-1 assay at 72 hr (24 hr drug exposure, wash, 48 hr); assay type: cell-based
Procedure: as §4

H-460 [9] = assay: 3H-TdR incorporation at 72 hr (24 hr drug exposure, wash, 48 hr); assay type: cell-based, Human; settings: Homo sapiens, NCI-H460, read-out: IC50 in μM (3H-TdR incorporation at 72 hr) H-460 24 h, H-460 Human Lung Carcinoma, 72 hr assay
Procedure: as §2, §3

SF-268 [10] = assay: as above; assay type: cell-based, Human; settings: Homo sapiens, SF-268, read-out: IC50 in μM (3H-TdR incorporation at 72 hr) SF-268 24 h, SF-268 Human Central Nervous System Tumor; 24 h drug exposure, 72 hr assay
Procedure: as §2, §3

MCF-7 [11] = assay: as above; assay type: cell-based, Human; settings: Homo sapiens, MCF7, read-out: IC50 in μM (3H-TdR incorporation at 72 hr) MCF-7 24 h, MCF-7 Human Breast Carcinoma, 72 hr assay
Procedure: as §2, §3

CCRF-CEM [12] = assay: as above; assay type: cell-based; settings: read-out: IC50 in μM (3H-TdR incorporation at 72 hr) CCRF-CEM 24 h, CCRF-CEM T-cell Leukemia, 72 hr assay
Procedure: as §2, §3

H-460 [13] = assay: MTT assay at 72 hr (24 hr drug exposure, wash, 48 hr); assay type: cell-based
Procedure: as §4

SF-268 [14] = assay: as above; assay type: cell-based
Procedure: as §4

[15] = Homo sapiens, CCRF-CEM, read-out: IC50 CCRF-CEM 24 h, MMT or WST-1 at 72 hr, 24 h exposure, single experiment
[16] = read-out: IC50 CCRF-CEM 24 h, MMT or WST-1 at 72 hr, 24 h exposure, single experiment
[17] = read-out: IC50 CEM/dCK- 24 h, MMT or WST-1 at 72 hr, 24 h exposure, single experiment
[18] = read-out: IC50 CEM/dCK- 24 h; MMT or WST-1 at 72 hr, 24 h exposure, single experiment
[19] = Homo sapiens, NCI-H460, read-out: IC50 H-460 24 h, MTT at 72 hr, 24 h exposure, single experiment
[20] = read-out: IC50 H-460 24 h, MTT at 72 hr, 24 h exposure, single experiment
[21] = Homo sapiens, SF-268, read-out: IC50 SF-268 24 h, MTT at 72 hr, 24 h exposure, single experiment
[22] = read-out: IC50 SF-268 24 h, MTT at 72 hr, 24 h exposure, single experiment

Structure (SMILES)	IC50 (CCRF-CEM [5]; [15])	IC50 (CEM/dCK- [7])	IC50 (CEM/dCK- [8]; [17])	IC50 (CEM/dCK- [8]; [18])	IC50 (H-460 [9])	IC50 (SF-268 [10])	IC50 (MCF-7 [11])	IC50 (CCRF-CEM [12]; Homo sapiens, CCRF-CEM)	Factor* (Resistance Factor = Ratio of dCK- on Wild-type CCRF-CEM) (CEM/dCK- [7])	also measured
Nc1ccn([C@@H]2CO[C@H](COC(=O)C34CC5CC(CC(C5)C3)C4)O2)c(=O)n1 [Compound 110, ADAMANTANE-1-CARBOXYLIC ACID 4-(4-AMINO-2-OXO- 2H-PYRIMIDIN-1-YL)- [1,3]DIOXOLAN-2- YLMETHYL ESTER]	3.4 nM	–	–	–	–	–	–	–	–	IC50 (CCRF-CEM [1]): 1.3 nM; IC50 (CEM/dCK- [2]; Homo sapiens, CCRF-CEM, read-out: IC50 CEM/dCK- 24 h, 24 h drug exposure, wash, another 48 hr, deoxycytidine kinase-deficient CCRF-CEM): 4300 nM; Factor* (Resistance Factor = Ratio of dCK- on Wild-type CCRF-CEM) (CEM/dCK- [2]; ratio of IC50 CEM/dCK- to CCRF-CEM, 24 h): 3307; IC50 (H-460 [3]): 1 nM; IC50 (SF-268 [4]): 4.9 nM; IC50 (CCRF-CEM [5]; [16]): 2.5 nM and 4 nM; IC50 (MCF-7 [6]): 10 nM
CC(C)(C)c1cc(C(=O)OC[C@H]2OC[C@@H](n3ccc(N)nc3=O)O2)cc(C(C)(C)C)c1 [Compound 186, 3,5-DI-TERT-BUTYL- BENZOIC ACID 4-(4- AMINO-2-OXO-2H- PYRIMIDIN-1-YL)- [1,3]DIOXOLAN-2- YLMETHYL ESTER]	–	> 100 µM	26000 nM	14000 nM	–	–	–	–	–	–
O=C(CCCCCCCc1ccccc1)Nc1ccn([C@@H]2CO[C@H](COC(=O)CCCCCCCc3ccccc3)O2)c(=O)n1 [Compound 196, 8-PHENYL-OCTANOIC ACID 4-[2-OXO-4-(8-PHENYL- OCTANOYLAMINO)-2H- PYRIMIDIN-1-YL]- [1,3]DIOXOLAN-2-YL METHYL ESTER]	10 nM	–	–	–	< 0.0001 µM	< 0.0001 µM	< 0.0001 µM	–	–	–
CC(=O)Oc1ccc(COC(=O)Nc2ccn([C@@H]3CO[C@H](COC(=O)OCc4ccc(OC(C)=O)cc4)O3)c(=O)n2)cc1 [Compound 202, Acetic acid 4-(1-{2-[4-(Acetyloxy)benzyloxycarbonyloxymethyl]-[1,3]dioxolan-4-yl}2-oxo-1,2-dihydropyrimidin-4-ylcarbamoyloxymethyl)-phenyl Ester]	14 nM	–	50 nM	> 100 nM	–	–	< 0.0001 µM	< 0.1 nM	>1000	Resistance Factor* (CEM/dCK- [8]; CEM/dCK- versus CCRF-CEM, single experiment): >7
CCCCCCCCCCCC(=O)Nc1ccn([C@@H]2CO[C@H](CO)O2)c(=O)n1 [Compound 208, DODECANOIC ACID [1-(2- HYDROXYMETHYL- [1,3]DIOXOLAN-4-YL)-2- OXO-1,2-DIHYDRO- PYRIMIDIN-4-YL]-AMIDE]	–	–	–	–	–	–	–	< 0.1 nM	–	IC50 (H-460 [13]; [19]): 110 nM; IC50 (H-460 [13]; [20]): 200 nM; IC50 (CCRF-CEM [12]): 0.052 nM
CCCCC[C@]12CC[C@](C(=O)Nc3ccn([C@@H]4CO[C@H](CO)O4)c(=O)n3)(CC1)CC2 [Compound 210, 4-Pentyl-Bicyclo[2.2.2]Octane-1-Carboxylic Acid [1-(2-Hydroxymethyl-[1,3]Dioxolan-4-Yl)-2-Oxo-1,2-Dihydro-Pyrimidin-4-Yl]-Amide]	–	> 100 µM	–	–	0.0026 µM	0.26 µM	0.005 µM	–	–	IC50 (SF-268 [14]; [21]): ≥ 100000 nM; IC50 (SF-268 [14]; [22]): > 100000 nM and 51000 nM
CCCCC[C@]12CC[C@](C(=O)OC[C@H]3OC[C@@H](n4ccc(N)nc4=O)O3)(CC1)CC2 [Compound 211, 4-PENTYL- BICYCLO[2.2.2]OCTANE-1- CARBOXYLIC ACID 4-(4- AMINO-2-OXO-2H- PYRIMIDIN-1-YL)- [1,3]DIOXOLAN-2-YL METHYL ESTER]	–	–	–	–	–	–	–	0.027 nM	–	IC50 (SF-268 [14]; [22]): 34 nM; IC50 (CCRF-CEM [12]): 0.053 nM
CCCCCCCC/C=C\CCCCCCCC(=O)Nc1ccn([C@@H]2CO[C@H](CO)O2)c(=O)n1 [Compound 219, OCTADEC-9-ENOIC ACID [1-(2-HYDROXYMETHYL- [1,3]DIOXOLAN-4-YL)-2- OXO-1,2-DIHYDRO- PYRIMIDIN-4-YL]-AMIDE]	18 nM	2.1 µM	–	–	≤ 0.0001 µM	0.00012 µM	≤ 0.0001 µM	–	–	IC50 (CCRF-CEM [5]; [16]): 10 nM
CCCCC[C@H]1CC[C@H](C(=O)Nc2ccn([C@@H]3CO[C@H](CO)O3)c(=O)n2)CC1 [Compound 239, 4-PENTYL- CYCLOHEXANECARBOXYLIC ACID [1-(2- HYDROXYMETHYL- [1,3]DIOXOLAN-4-YL)-2- OXO-1,2-DIHYDRO- PYRIMIDIN-4-YL]-AMIDE]	–	20 µM	20000 nM	28000 nM and 17000 nM	0.0065 µM	0.19 µM	0.00033 µM	3 nM	6667	IC50 (H-460 [13]; [20]): 200 nM
CC(CCCCCCc1ccccc1)C(=O)Nc1ccn([C@@H]2CO[C@H](CO)O2)c(=O)n1 (some centres unmarked) [Compound 247, 2-Methyl-8-phenyl-octanoic acid [1-(2-hydroxymethyl-[1,3]dioxolan-4-yl)-2-oxo-1,2-dihydro-pyrimidin-4-yl]-amide]	–	15 µM	61000 nM	49000 nM	0.13 µM	0.13 µM	0.00078 µM	100 nM	150	IC50 (H-460 [13]; [19]): 390 nM; IC50 (H-460 [13]; [20]): 540 nM and 460 nM
CC(C)C[C@H](NC(=O)OCc1ccccc1)C(=O)Nc1ccn([C@@H]2CO[C@H](CO)O2)c(=O)n1 [Compound 254, {1-[1-(2-HYDROXYMETHYL- [1,3]DIOXOLAN-4-YL)-2- OXO-1,2-DIHYDRO- PYRIMIDIN-4-YL CARBAMOYL]-3-METHYL- BUTYL}-CARBAMIC ACID BENZYL ESTER]	–	31 µM	–	–	0.17 µM	0.29 µM	0.18 µM	98 nM	316	–
CC(C)(C)C(CCCCCCc1ccccc1)C(=O)OC[C@H]1OC[C@@H](n2ccc(N)nc2=O)O1 (some centres unmarked) [Compound 256, 2-tert-Butyl-8-phenyl-octanoic acid 4-(4-amino-2-oxo-2H-pyrimidin-1-yl)-[1,3]dioxolan-2-yl methyl ester]	–	20 µM	–	–	4.6 µM	14 µM	5.1 µM	5300 nM	4	–
CC(C)C[C@H](NC(=O)[C@H](C)NC(=O)OC(C)(C)C)C(=O)Nc1ccn([C@@H]2CO[C@H](CO)O2)c(=O)n1 [Compound 263, (1-{1-[1-(2- HYDROXYMETHYL- [1,3]DIOXOLAN-4-YL)-2- OXO-1,2-DIHYDRO- PYRIMIDIN-4- YLCARBANOYL]-3-METHYL- BUTYLCARBAMOYL}-ETHYL)- CARBAMIC ACID TERT- BUTYL ESTER]	19000 nM	–	> 100000 nM	–	–	–	–	–	–	IC50 (H-460 [13]; [19]): 66000 nM; IC50 (H-460 [13]; [20]): > 100000 nM; IC50 (SF-268 [14]; [21]): > 100000 nM; IC50 (CCRF-CEM [5]; [16]): 14000 nM
CCC(CCCCCCc1ccccc1)C(=O)OC[C@H]1OC[C@@H](n2ccc(N)nc2=O)O1 (some centres unmarked) [Compound 266, 2-ETHYL-8-PHENYL- OCTANOIC ACID 4-(4- AMINO-2-OXO-2H- PYRIMIDIN-1-YL)- [1,3]DIOXOLAN-2- YLMETHYL ESTER]	–	–	21000 nM	26000 nM	–	–	–	–	–	–
